Values of other authors, collected in US8906890B2, “Very low-dosed solid oral dosage forms for HRT” (Bayer Intellectual Property GmbH, priority 2010, dated 2014).

Conditions: 2 mg E2 orally

C[C@]12CC[C@@H]3c4ccc(O)cc4CC[C@H]3[C@@H]1CC[C@@H]2O [E2, estradiol]
estrogen-related adverse events: increased estrogen-related adverse events
